The results in this text go back to patent US5498795A, “Acetylenes disubstituted with hydroxyaryl and aryl or heteroaryl groups having retinoid-like biological activity” (Allergan, Inc., priority 1994, dated 1996).

In this experiment the test system is ornithine decarboxylase (ODC). Description: ODC assay: inhibition of TPA induction of ornithine decarboxylase. It counts as in vivo. From the text: The retinoic acid-like activity of these compounds is confirmed through the classic measure of retinoic acid activity involving the effects of retinoic acid on ornithine decarboxylase. The original work on the correlation between retinoic acid and decrease in cell proliferation was done by Verma & Boutwell, Cancer Research, 1977, 37,2196-2201. That reference discloses that ornithine decarboxylase (ODC) activity increased precedent to polyamine biosynthesis. It has been established elsewhere that increases in polyamine synthesis can be correlated or associated with cellular proliferation. Thus, if ODC activity could be inhibited, cell hyperproliferation could be modulated. Although all cases for ODC activity increases are unknown, it is known that 12-0-tetradecanoylphorbol-13-acetate (TPA) induces ODC activity. Retinoic acid inhibits this induction of ODC activity by TPA. […] Activity of exemplary compounds of the present invention in the above-described ODC assay is disclosed in Table 2 which provides either […] (or other measured per cent inhibition at the indicated concentration) for the respective exemplary compound.

For `O=C(O)c1ccc(C#Cc2ccc(C34CC5CC(CC(C5)C3)C4)c(O)c2)nc1` [Compound 23, 6-[2-[[2-(1-adamantyl)-1-hydroxy]-5-phenyl]-ethyn-1-yl]nicotinic acid], the “% of inhib” value (conc 300) is 55%. In the case of `CC(C)(C)c1ccc(C#Cc2ccc(C(=O)O)cn2)cc1O` [Compound 20, 6-[2-[[2-t-Butyl-1-hydroxy]-5-phenyl]ethyn-1-yl]nicotinic acid], the “% of inhib” value (conc 100) worked out at 64%.
